Data as given in PubChem BioAssay (NCI).
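Assay format: 96-well plates, 48-hour exposure. TGI is the concentration that stops growth completely.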

How the values were obtained:
Test in all cases: DTP human tumour cell line panel, 48 h
[1] = tested on: SN12C renal
[2] = tested on: MALME-3M melanoma
[3] = tested on: COLO 205 colon
[4] = tested on: KM20L2 colon
[5] = tested on: IGROV1 ovarian
[6] = tested on: MOLT-4 leukemia
[7] = tested on: DMS 273 small cell lung
[8] = tested on: SK-MEL-28 melanoma
[9] = tested on: TK-10 renal
[10] = tested on: SK-MEL-5 melanoma
[11] = tested on: NCI-H522 lung
[12] = tested on: HL-60(TB) leukemia
[13] = tested on: K-562 leukemia
[14] = tested on: NCI-H226 lung
[15] = tested on: RPMI-8226 leukemia
[16] = tested on: NCI-H23 lung
[17] = tested on: HT29 colon
[18] = tested on: SNB-75 CNS
[19] = tested on: HCT-15 colon
[20] = tested on: HOP-18 NSCLC
[21] = tested on: 786-0 renal
[22] = tested on: SK-OV-3 ovarian
[23] = tested on: OVCAR-8 ovarian
[24] = tested on: SF-539 CNS
[25] = tested on: CCRF-CEM leukemia
[26] = tested on: KM12 colon
[27] = tested on: RXF 393 renal
[28] = tested on: OVCAR-3 ovarian
[29] = tested on: NCI-H460 lung
[30] = tested on: SF-295 CNS
[31] = tested on: M14 melanoma
[32] = tested on: HCC-2998 colon
[33] = tested on: SNB-78 CNS
[34] = tested on: M19-MEL melanoma
[35] = tested on: A498 renal
[36] = tested on: SW-620 colon
[37] = tested on: LXFL 529 NSCLC
[38] = tested on: XF 498 CNS
[39] = tested on: SK-MEL-2 melanoma
[40] = tested on: LOX IMVI melanoma
[41] = tested on: ACHN renal
[42] = tested on: UACC-62 melanoma
[43] = tested on: DMS 114 small cell lung
[44] = tested on: HOP-62 NSCLC
[45] = tested on: OVCAR-5 ovarian
[46] = tested on: SF-268 CNS
[47] = tested on: UO-31 renal
[48] = tested on: U251 CNS
[49] = tested on: DLD-1 colon
[50] = tested on: A549 NSCLC
[51] = tested on: EKVX NSCLC
[52] = tested on: HCT-116 colon
[53] = tested on: SNB-19 CNS
[54] = tested on: OVCAR-4 ovarian
[55] = tested on: UACC-257 melanoma
[56] = tested on: SR leukemia
[57] = tested on: CAKI-1 renal

COc1ccc(/C=C/C(=O)C(C)(C)CN2CCCCC2)cc1
TGI [1]: 44.1 µM
TGI [2]: 79.8 µM
TGI [3]: 30.6 µM
TGI [4]: > 100 µM
TGI [5]: 65.8 µM
TGI [6]: 47.9 µM
TGI [7]: 41.6 µM
TGI [8]: 65.9 µM
TGI [9]: 53.4 µM
TGI [10]: 35.5 µM
TGI [11]: 30 µM
TGI [12]: 37.9 µM
TGI [13]: 65.2 µM
TGI [14]: 45.9 µM
TGI [15]: 40.3 µM
TGI [16]: 54.7 µM
TGI [17]: 33 µM
TGI [18]: 47.1 µM
TGI [19]: 34.3 µM
TGI [20]: 60.4 µM
TGI [21]: 29.9 µM
TGI [22]: 61.7 µM
TGI [23]: 37.7 µM
TGI [24]: 38.1 µM
TGI [25]: 60.6 µM
TGI [26]: 55.7 µM
TGI [27]: 38 µM
TGI [28]: 34.5 µM
TGI [29]: 43.3 µM
TGI [30]: 97.5 µM
TGI [31]: 32.2 µM
TGI [32]: 33.7 µM
TGI [33]: 69 µM
TGI [34]: 33.8 µM
TGI [35]: 38.5 µM
TGI [36]: 14.2 µM
TGI [37]: 28.9 µM
TGI [38]: 30.1 µM
TGI [39]: 32.7 µM
TGI [40]: 29.6 µM
TGI [41]: 60.1 µM
TGI [42]: 65.5 µM
TGI [43]: 29.6 µM
TGI [44]: > 100 µM
TGI [45]: > 100 µM
TGI [46]: 59.8 µM
TGI [47]: 41.3 µM
TGI [48]: 30 µM
TGI [49]: 36.4 µM
TGI [50]: 74.3 µM
TGI [51]: 80.7 µM
TGI [52]: 30.8 µM
TGI [53]: > 100 µM
TGI [54]: 22.1 µM
TGI [55]: 46.2 µM

COCc1c(CO)cnc(C)c1OC1OC(CO)C(O)C(O)C1O (stereo not given)
TGI [1]: > 100 µM
TGI [2]: > 100 µM
TGI [56]: > 100 µM
TGI [4]: > 100 µM
TGI [5]: > 100 µM
TGI [6]: > 100 µM
TGI [7]: > 100 µM
TGI [8]: > 100 µM
TGI [10]: > 100 µM
TGI [11]: > 100 µM
TGI [13]: > 100 µM
TGI [14]: > 100 µM
TGI [15]: > 100 µM
TGI [17]: > 100 µM
TGI [18]: > 100 µM
TGI [19]: > 100 µM
TGI [21]: > 100 µM
TGI [22]: > 100 µM
TGI [23]: > 100 µM
TGI [57]: > 100 µM
TGI [24]: > 100 µM
TGI [26]: > 100 µM
TGI [27]: > 100 µM
TGI [28]: > 100 µM
TGI [29]: > 100 µM
TGI [30]: > 100 µM
TGI [31]: > 100 µM
TGI [32]: > 100 µM
TGI [34]: > 100 µM
TGI [35]: > 100 µM
TGI [36]: > 100 µM
TGI [37]: > 100 µM
TGI [38]: > 100 µM
TGI [39]: > 100 µM
TGI [40]: > 100 µM
TGI [41]: > 100 µM
TGI [42]: > 100 µM
TGI [43]: > 100 µM
TGI [44]: > 100 µM
TGI [45]: > 100 µM
TGI [46]: > 100 µM
TGI [47]: > 100 µM
TGI [48]: > 100 µM
TGI [49]: > 100 µM
TGI [50]: > 100 µM
TGI [51]: > 100 µM
TGI [52]: > 100 µM
TGI [53]: > 100 µM
TGI [54]: > 100 µM
TGI [55]: > 100 µM
